Experimental data taken from PMC9959244, “Revisiting the Solubility–Permeability Relationship with Hydrophobic Drug Umifenovir in Pluronic Solutions: Impact of pH and Co-Solvent” (Pharmaceutics, 2023).

Assay: Quantitative parameters of UMF solubilization by F-127 micelles (from phase solubility plots)
Format: physicochemical
From the text: To elucidate the solubilizing potential of the micelles of F-127 towards UMF, we determined the solubilizing capacity (χ) equal the amount of UMF solubilized by one mole of F-127 using the equation given in Stephenson et al.:(2) χ=(S2−S20)/(Cpolym−cmc)=(SUMF−SUMF0)/(CF−127−cmc) where S2 and S20 are the total compound solubility at a specific polymer concentration in the solution and the intrinsic solubility, respectively, Cpolym is the polymer (F-127) concentration, cmc is the polymer critical micelle concentration, expressed in mol∙L^−1, and (Cpolym—cmc) is the concentration of the micelles. […] Solubilizing capacities were determined from the slopes of the dependences illustrated in Figure S2. […]
Micelle formation occurs above the critical micelle concentration and is accompanied by the removal of the hydrophobic tails of F-127 molecules from the aqueous surroundings, the association of monomers and the decrease of the free energy of the entire system. […] In order to quantify the apparent free energy of solubilization (transferring of the compound from the aqueous to the micellar phase) at 310.15 K, the following equation was applied:(4) ΔGS310.15K=−RT⋅lnKm/w where ΔGS310.15K is the apparent solubilization free energy, R is the universal gas constant, and Km/w is the micelle/water partition coefficient of UMF. […]

Higher solubilizing potential of F-127 (Km/w) towards UMF base at pH 7.4 vs UMF∙HCl∙H2O at pH 2.0: approximately 5.4 fold
logKm/w (UMF-buffer pH 7.4-pluronic F-127 system): 3.88
Structure (SMILES): CCOC(=O)c1c(CSc2ccccc2)n(C)c2cc(Br)c(O)c(CN(C)C)c12 [UMF, 6-bromo-4-dimethylaminomethyl-5-hydroxy-1-methyl-2-phenylthiomethyl indole-3-carboxylic acid ethyl ester]
